Calls of active or inactive are those of the source. No cut-off for these calls is given here.
Columns and labels:
[1] = organism: Rattus norvegicus; assay: Antagonist activity at AT1 Ang II receptor in noradrenaline sensitized rat aorta assessed as inhibition of angiotensin II induced contraction at 10 uM preincubated for 15 mins followed by angiotensin II addition; type: tissue-based; details: filed as antagonist
[2] = organism: Rattus norvegicus; assay: Antagonist activity at AT1 Ang II receptor in rat kidney assessed as reduction in angiotensin II induced renal perfusion pressure at 1 uM measured after […]; type: tissue-based; details: time […]
[3] = system: Rattus norvegicus; assay: Antihypertensive activity in spontaneously hypertensive rat assessed as reduction in systolic blood pressure at 5 mg/kg, ip measured for 6 hrs by tail-cuff method; type: functional, organism-based
[4] = system: Aorta; assay: Vasorelaxant activity in rat aorta assessed as relaxation of noradrenaline-induced vascular contraction at 10 uM relative to control; type: functional; set-up: scale not given: the % may be the effect or the level left
[5] = system: Aorta; assay: Vasorelaxant activity in rat aorta assessed as relaxation of noradrenaline-induced vascular contraction at 10 uM incubated in presence of endothelium; type: functional, tissue-based
[6] = system: Aorta; assay: Vasorelaxant activity in rat aorta assessed as relaxation of noradrenaline-induced vascular contraction at 10 uM incubated in absence of endothelium; type: functional, tissue-based
[7] = molecular target: Voltage-gated L-type calcium channel (Rattus norvegicus, UniProt P22002+Q02485+P27732); assay: Inhibition of L-type calcium channel in rat aorta assessed as vasorelaxation of thoracic aorta in presence of endothelium; type: tissue-based
[8] = system: Rattus norvegicus; assay: Antihypertensive activity in spontaneously hypertensive rat assessed as reduction in systolic blood pressure at 20 mg/kg, ip measured for 6 hrs by tail-cuff method; type: functional, organism-based

Activity [2]	SMILES	Activity [1]	also measured
–	CCCc1nc2c(C)cc(-c3nc4ccccc4n3C)cc2n1Cc1ccc(-c2ccccc2C(=O)O)cc1	Active	Activity ([2]; filed as antagonist): Active; Activity [3]: Active
inactive	O=C(O)c1cccc2[nH]c(SCc3ccc(-c4ccccc4-c4nnn[nH]4)cc3)nc12	Active	Activity [4]: 57.3%; Activity [5]: Active
inactive	O=[N+]([O-])c1ccc2[nH]c(SCc3ccc(-c4ccccc4-c4nnn[nH]4)cc3)nc2c1	Active	–
inactive	O=C(O)c1ccc2[nH]c(SCc3ccc(C(=O)Nc4nnn[nH]4)cc3)nc2c1	Active	–
–	O=C(O)c1ccc2[nH]c(SCc3ccc(-c4ccccc4-c4nnn[nH]4)cc3)nc2c1	Active	Activity [4]: 88.7%; Activity [5]: Active; Activity [6]: Active; IC50 [7]: 0.57 µM; Activity ([2]; filed as antagonist): Active; Activity [8]: Active
inactive	Cc1ccc2[nH]c(SCc3ccc(C(=O)Nc4nnn[nH]4)cc3)nc2c1	Active	–
inactive	O=C(Nc1nnn[nH]1)c1ccc(CSc2nc3cc([N+](=O)[O-])ccc3[nH]2)cc1	Active	–
inactive	O=C(Nc1nnn[nH]1)c1ccc(CSc2nc3c(C(=O)O)cccc3[nH]2)cc1	Active	–

Reference: ChEMBL document CHEMBL5584258, “Synthesis, biosimulation and pharmacological evaluation of benzimidazole derivatives with antihypertensive multitarget effect” (Bioorg Med Chem Lett, 2024)
